Results taken from ChEMBL document CHEMBL4340517, “Synthesis and biological evaluation of 7-substituted cycloberberine derivatives as potent antibacterial agents against MRSA” (2019).
In brackets after ≈: the same amount, converted by molar mass. Activity calls are given as the source filed them. The calls are words filed in the database; no cut-off is given here.

Experiments:
Enterococcus faecalis [1] = test: Antibacterial activity against VAN-sensitive Enterococcus faecalis ATCC 29212 after 18 hrs by agar dilution method; assay type: functional; details: ATCC 29212, 18 h
Enterococcus faecium = test: Antibacterial activity against VAN-resistant Enterococcus faecium ATCC 700221 after 18 hrs by agar dilution method; assay type: functional; details: ATCC 700221, 18 h
Staphylococcus aureus [2] = test: Antibacterial activity against methicillin-resistant Staphylococcus aureus ATCC 33591 after 18 hrs by agar dilution method; assay type: functional; details: ATCC 33591, 18 h
[3] = test system: Staphylococcus epidermidis; test: Antibacterial activity against methicillin-resistant Staphylococcus epidermidis 13-3 after 18 hrs by agar dilution method; assay type: functional; details: 13-3, 18 h
Enterococcus faecalis [4] = test: Antibacterial activity against VAN-resistant Enterococcus faecalis ATCC 51299 after 18 hrs by agar dilution method; assay type: functional; details: ATCC 51299, 18 h
Staphylococcus aureus [5] = test: Antibacterial activity against VAN-intermediate Staphylococcus aureus ATCC 700698 after 18 hrs by agar dilution method; assay type: functional; details: ATCC 700698, 18 h
Staphylococcus aureus [6] = test: Antibacterial activity against methicillin-sensitive Staphylococcus aureus ATCC 29213 after 18 hrs by agar dilution method; assay type: functional; details: ATCC 29213, 18 h
Staphylococcus aureus [7] = test: Antibacterial activity against methicillin-resistant Staphylococcus aureus 18-4 after 18 hrs by agar dilution method; assay type: functional; details: 18-4, 18 h
Staphylococcus aureus [8] = test: Bactericidal activity against methicillin-resistant Staphylococcus aureus 18-4 assessed as reduction in bacterial growth at 8 times MIC measured within 2 hrs by time kill assay relative to control; assay type: functional
Staphylococcus aureus [9] = test: Bactericidal activity against methicillin-resistant Staphylococcus aureus 18-4 assessed as reduction in bacterial growth at 2 times MIC measured after 24 hrs by time kill assay relative to control; assay type: functional
Staphylococcus aureus [10] = test: Bactericidal activity against methicillin-resistant Staphylococcus aureus 18-4 assessed as reduction in bacterial growth at 2 to 32 times MIC measured within 8 hrs by time kill assay relative to control; assay type: functional
[11] = target: Topoisomerase IV (Staphylococcus aureus) (UniProt P0C1U9+P0C1S7); test: Inhibition of methicillin-resistant Staphylococcus aureus topoisomerase-4 assessed as reduction in DNA decatenation at 2.5 to 5 ug/ml using super coiled pBR322 plasmid DNA as substrate measured after 30 mins by agarose gel electrophoresis method relative to control; assay type: protein-complex assay

Structure (SMILES)	MIC (Enterococcus faecalis [1]) [µg/mL]	MIC (Enterococcus faecium) [µg/mL]	MIC (Staphylococcus aureus [2]) [µg/mL]	MIC [3] [µg/mL]	MIC (Enterococcus faecalis [4]) [µg/mL]	MIC (Staphylococcus aureus [5]) [µg/mL]	MIC (Staphylococcus aureus [6]) [µg/mL]	MIC (Staphylococcus aureus [7]) [µg/mL]	growth inhibition (GI) (Staphylococcus aureus [8]) [%]	growth inhibition (GI) (Staphylococcus aureus [9]) [%]	growth inhibition (GI) (Staphylococcus aureus [10]) [%]	inhibition [11]
COc1cc2c3c(ccc4c5ccc(OC)c(OC)c5c(-c5ccc(Cl)cc5)[n+](c43)CC2)c1OC.[Br-]	16	> 128	8	2	8	16	2	–	–	–	–	–
COc1ccc2c(c1OC)c(-c1ccc(Cl)cc1)[n+]1c3c2ccc2c4c(cc(c23)CC1)OCO4.[Br-]	8	> 128	4	1	8	8	2	–	–	–	–	–
C=Cc1c2c(OC)c(OC)ccc2c2ccc3c4c(cc5c3c2[n+]1CC5)OCO4.[Br-]	4	4	8	2	4	8	4	–	–	–	–	–
COc1ccc2c(c1OC)c(-c1ccc3c(c1)OCO3)[n+]1c3c2ccc2c4c(cc(c23)CC1)OCO4.[Br-]	8	8	16	2	8	32	16	–	–	–	–	–
CN[C@H](CC(C)C)C(=O)N[C@H]1C(=O)N[C@@H](CC(N)=O)C(=O)N[C@H]2C(=O)N[C@H]3C(=O)N[C@H](C(=O)N[C@H](C(=O)O)c4cc(O)cc(O)c4-c4cc3ccc4O)[C@H](O)c3ccc(c(Cl)c3)Oc3cc2cc(c3O[C@@H]2O[C@H](CO)[C@@H](O)[C@H](O)[C@H]2O[C@H]2C[C@](C)(N)[C@H](O)[C@H](C)O2)Oc2ccc(cc2Cl)[C@H]1O [VANCOMYCIN]	2 (≈ 1.38 µM)	64 (≈ 44.2 µM)	–	–	32 (≈ 22.1 µM)	8 (≈ 5.52 µM)	–	–	–	–	–	–
COc1cc2c3c(ccc4c5ccc(OC)c(OC)c5c(-c5ccccc5)[n+](c43)CC2)c1OC.[Br-]	32	> 128	16	4	32	32	4	–	–	–	–	–
COc1ccc2c(c1OC)c(-c1ccccc1)[n+]1c3c2ccc2c4c(cc(c23)CC1)OCO4.[Br-]	4	4	4	1	4	8	1	1	100	99.99	>90	Active
CCCCc1cc2c3ccc(OC)c(OC)c3c(-c3ccc(Cl)cc3)[n+]3c2c2c(cc4c(c12)OCO4)CC3.[Br-]	1	1	1	1	2	32	1	–	–	–	–	–
COc1cc2c3c(ccc4c5ccc(OC)c(OC)c5c(-c5ccc6c(c5)OCO6)[n+](c43)CC2)c1OC.[Br-]	32	> 128	8	2	32	32	4	–	–	–	–	–
CCc1cc2c3ccc(OC)c(OC)c3c(-c3ccc(Cl)cc3)[n+]3c2c2c(cc4c(c12)OCO4)CC3.[Br-]	4	1	2	1	4	32	1	–	–	–	–	–
CCc1cc2c3ccc(OC)c(OC)c3c(-c3ccccc3)[n+]3c2c2c(cc4c(c12)OCO4)CC3.[Br-]	4	1	8	1	4	32	1	–	–	–	–	–
CCCc1cc2c3ccc(OC)c(OC)c3c[n+]3c2c2c(cc4c(c12)OCO4)CC3.[Cl-]	8	8	16	4	8	8	2	–	–	–	–	–
CCc1c2c(OC)c(OC)ccc2c2ccc3c4c(cc5c3c2[n+]1CC5)OCO4.[Br-]	16	8	16	4	16	64	4	–	–	–	–	–
CCCCc1cc2c3ccc(OC)c(OC)c3c[n+]3c2c2c(cc4c(c12)OCO4)CC3.[Cl-]	16	16	4	32	32	16	4	–	–	–	–	–
COc1ccc2c(c1OC)c(C1CC1)[n+]1c3c2ccc2c4c(cc(c23)CC1)OCO4.[Br-]	16	16	16	8	16	16	8	–	–	–	–	–
COc1ccc2c(c1OC)c(-c1ccc(F)cc1)[n+]1c3c2ccc2c4c(cc(c23)CC1)OCO4.[Br-]	16	> 128	8	4	16	16	8	–	–	–	–	–
CCCc1cc2c3ccc(OC)c(OC)c3c(-c3ccc(Cl)cc3)[n+]3c2c2c(cc4c(c12)OCO4)CC3.[Br-]	16	> 128	8	4	32	32	2	–	–	–	–	–
COc1ccc2c(c1OC)c(CC(C)C)[n+]1c3c2ccc2c4c(cc(c23)CC1)OCO4.[Br-]	16	16	16	4	16	16	4	–	–	–	–	–
CCc1cc2c3ccc(OC)c(OC)c3c(CC(C)C)[n+]3c2c2c(cc4c(c12)OCO4)CC3.[Br-]	4	2	4	1	8	32	1	–	–	–	–	–
C=Cc1c2c(OC)c(OC)ccc2c2cc(CC)c3c4c(cc5c3c2[n+]1CC5)OCO4.[Br-]	2	1	2	1	4	32	1	–	–	–	–	–
CCOc1c(OC)ccc2c1c(-c1ccccc1)[n+]1c3c2ccc2c4c(cc(c23)CC1)OCO4.[Br-]	4	2	8	1	4	32	1	–	–	–	–	–
CCc1cc2c3ccc(OC)c(OC)c3c[n+]3c2c2c(cc4c(c12)OCO4)CC3.[Cl-]	8	32	4	1	8	16	2	–	–	–	–	–
COc1ccc2c(c1OC)c(-c1ccc(C)cc1)[n+]1c3c2ccc2c4c(cc(c23)CC1)OCO4.[Br-]	16	16	16	8	16	16	8	–	–	–	–	–
CCCc1cc2c3ccc(OC)c(OC)c3c(-c3ccccc3)[n+]3c2c2c(cc4c(c12)OCO4)CC3.[Br-]	8	> 128	2	2	16	32	2	–	–	–	–	–
CCCCc1cc2c3ccc(OC)c(OC)c3c(-c3ccccc3)[n+]3c2c2c(cc4c(c12)OCO4)CC3.[Br-]	2	1	2	1	4	32	1	–	–	–	–	–
C=CCc1c2c(OC)c(OC)ccc2c2ccc3c4c(cc5c3c2[n+]1CC5)OCO4.[Br-]	16	16	16	8	16	16	16	–	–	–	–	–
